pIC50: −log10 of the molar value. Where two headings read alike, the source gives them in different places.
Experiments:
[1] = biological target: T1, Avi-KRAS G12C (1-169) GppNHp/RAF1 RBD-3×FLAG (52-151) (Homo sapiens, UniProt P01116, G12C); test: Raf1 RBD-KRAS G12C-GppNHp disruption (protein:protein interaction HTRF assay); type: biochemical
T1 construct: Avi-KRAS G12C (1-169) GppNHp/RAF1 RBD-3×FLAG (52-151)
Procedure, shortened: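 HTRF measuring disruption of 50 nM Avi-KRAS G12C (1-169) loaded with GppNHp binding RAF1 RBD-3×FLAG (52-151), in pH 7.5 Tris buffer with 5 mM MgCl2, 0.1% BSA, 10% DMSO. KRAS preincubated with compound 1 h, then RBD 1 h, then detection reagents 1 h, all at room temperature. Compound titration 30-0.02 μM; activity expressed as percent of DMSO control.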

[2] = biological target: T2, GppNHp-loaded KRAS4b (amino acids 1-169) G12C/C118S protein (Homo sapiens, UniProt P01116, C118S/G12C); test: Covalent cysteine 12 modification by MALDI-TOF MS, GppNHp-loaded KRAS G12C; type: binding; conditions: 15 minutes reaction time point
T2 construct: KRAS4b (amino acids 1-169) G12C/C118S protein; made in house
Procedure, shortened: (§1)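 KRAS4b 1-169 G12C/C118S loaded with GDP, GppNHp or GTP was used at 1 μM in 20 mM HEPES, 150 mM NaCl, 1 mM MgCl2, pH 7.3, and incubated with compound (5 mM DMSO stock) at room temperature in the dark. % modification at 15 min is adduct peak height over total protein peak heights by linear-mode MALDI-TOF.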

[3] = biological target: T3, GDP-loaded KRAS4b (amino acids 1-169) G12C/C118S protein (Homo sapiens, UniProt P01116, C118S/G12C); test: Covalent cysteine 12 modification by MALDI-TOF MS, GDP-loaded KRAS G12C; type: binding; conditions: 15 minutes reaction time point
T3 construct: KRAS4b (amino acids 1-169) G12C/C118S protein; made in house
Procedure, shortened: as §1

[4] = test system: pERK in NCI-H358 cells; test: Cell-based pERK HTRF assay; conditions: 30 min incubation, read-out: pERK in NCI-H358 cell inhibition IC50
Procedure, shortened: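 Cells seeded at 4×10^4/well in RPMI with 10% FBS, then next day treated for 30 min with a 9-point, 3-fold series from 75 μM top concentration at 0.25% DMSO. Lysates were read for pERK by HTRF (d2/Eu cryptate antibodies) after 4–24 h at room temperature, emission at 615 nm.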

[5] = biological target: T4, GTP-loaded KRAS4b (amino acids 1-169) G12C/C118S protein (Homo sapiens, UniProt P01116, C118S/G12C); test: Covalent cysteine 12 modification by MALDI-TOF MS, GTP-loaded KRAS G12C; type: binding; conditions: 15 minutes reaction time point
T4 construct: KRAS4b (amino acids 1-169) G12C/C118S protein; made in house
Experimental: Reaction: 1 μM of GppNHp-, GTP-, or GDP-loaded KRAS4b (amino acids 1-169) G12C/C118S protein (produced in-house by Protein Expression Laboratory, FNLCR/Leidos Biomed) in 20 mM 4-(2-hydroxyethyl)-1-piperazineethanesulfonic acid (HEPES) buffer containing 150 mM NaCl, 1 mM MgCl2, pH 7.3 was prepared freshly before assay. Ten-μL aliquots of protein were dispensed onto low volume 384-well plate, then 375 nL DMSO, and 25 nL of tested compounds from 5 mM DMSO stocks were added to appropriate wells using ECHO 555 acoustic liquid handler (Labcyte Inc.). For each reaction/assay, three blanks were prepared by mixing 10 μL of protein solution with 400 nL DMSO. The contents of the wells were carefully mixed by aspiration, and then each plate was sealed with an adhesive cover, centrifuged at 2000 g for 1 minute, and kept in the dark at room temperature until 5 min, 15 min, 30 min, or 2 h collections.
Target pretreatment: Before each assay MALDI target (Bruker MPT 384 ground steel BC) was pre-treated by pipetting on each spot 0.75 μL of saturated sinapinic acid in acetonitrile (ACN).
Sample preparation: At collection time point, 2 μL of reaction mixtures were pipetted out into 20 μL MALDI matrix solution (saturated solution of sinapinic acid in 1:1 ACN:water solution containing 0.75% trifluoroacetic acid (TFA)) deposited on 384 well polypropylene plate. Resulting solution was mixed by aspiration, centrifuged at 2000 g for 1 minute, then 1 μL aliquots were dispensed on pre-treated MALDI target using Beckman Coulter Biomek FXP 96/384-Span-8 Laboratory Automation Workstation. Finally, the MALDI target was dried under mild vacuum to produce spots with fine crystalline structure.
Measurements: MALDI-TOF measurements were performed on a Bruker Daltonics rapiflex Tissuetyper TOF-TOF mass spectrometer using linear mode and mass range from 18.6 to 21.6 kDa. Detector gain was set to 3.3× (483 V), sample rate to 5 GS/s, real time smoothing to medium (175 MHz), laser smart beam pattern was set to: “MS Thin Layer M5”, and the laser frequency was 10000 Hz. Spectra were automatically collected using custom Auto Xecute method. Laser power was auto adjusted using fuzzy control. The peak selection range was set to be between 19000 and 21500 Da. Peak evaluation uses half width parameter set to be smaller than 40 Da for processed spectrograms (centroid peak detection; smoothed by SavitzkyGolay algorithm using 7 m/z width and 2 cycles; baseline was subtracted using median algorithm with flatness 1 and median level 0.01). Fuzzy control used Proteins/Oligonucleotides protocol with minimum half width 1/10 times above threshold. Up to 40000 satisfactory shots were collected in 10000 shot steps. Dynamic termination was implemented to finish data collection when peak signal/noise ratio was reaching value of 50.
Spectra processing: Spectra were smoothed by SavitzkyGolay algorithm using 7 m/z width and three cycles. Centroid peak detection algorithm was used with signal to noise threshold set to 6, relative intensity threshold 4%, peak width 10 m/z and median baseline subtraction using flatness of 1 and median level of 0.01. Peak intensity and area under the peak were evaluated and recorded for all peaks between 19,300 Da and 21,550 Da.
Calculation of percent modification: Percent modification was calculated as a ratio of peak height for protein modified by compound to sum of peak height of remaining protein plus peak height for protein modified by compound. If multiple modifications were observed each was calculated as a ratio of peak height for given modification versus sum of peak heights for all observed protein species. Data reported in Table 5 are from 15 minutes reaction time point.

SMILES | pIC50 [1] | GppNHp-KRAS G12C percent of modification [2] | GDP-KRAS G12C percent of modification [3] | pIC50 ([4]; Homo sapiens, NCI-H358, 0.5 h) | GTP-KRAS G12C percent of modification [5] | pIC50 [4]
C=CC(=O)N1CC[C@@H](Oc2nc(OC[C@@]34CCCN3C[C@H](F)C4)nc3c(Cl)c(-c4ccc(F)c5sc(N)nc45)c(C(F)(F)F)cc23)C1 (atropisomer, axis not shown) [Compound 44] | ≥ 6.30 | A (percent of modification ≥70%) | A (percent of modification ≥70%) | ≥ 7.00 | B (50≤percent of modification <70%) | 
C=CC(=O)N1C[C@H](Oc2nc(OC[C@@]34CCCN3C[C@H](F)C4)nc3c(F)c(-c4ccc(F)c5sc(N)c(C#N)c45)c(C(F)(F)F)cc23)C[C@@H]1COC (atropisomer, axis not shown) [Compound 85] | ≥ 6.30 | C (10%≤modification <50%) | C (10%≤modification <50%) |  | C (10%≤modification <50%) | ≥ 7.00
C=CC(=O)N1C[C@H](Oc2nc(OC[C@@]34CCCN3C[C@H](F)C4)nc3c(F)c(-c4ccc(F)c5sc(N)c(C#N)c45)c(C(F)(F)F)cc23)C[C@@H]1COC (atropisomer, axis not shown) [Compound 86] | 4.70 to 5.30 | D (percent of modification <10%) | D (percent of modification <10%) |  | D (percent of modification <10%) | < 6.00
C=CC(=O)N1C[C@H](Oc2nc(OC[C@@]34CCCN3C[C@H](F)C4)nc3c(F)c(-c4ccc(F)c5sc(N)c(C#N)c45)c(C(F)(F)F)cc23)C[C@H]1COC (atropisomer, axis not shown) [Compound 89] | ≥ 6.30 | B (50≤percent of modification <70%) | A (percent of modification ≥70%) |  | B (50≤percent of modification <70%) | ≥ 7.00
C=CC(=O)N1C[C@H](Oc2nc(OC[C@@]34CCCN3C[C@H](F)C4)nc3c(F)c(-c4ccc(F)c5sc(N)c(C#N)c45)c(C(F)(F)F)cc23)C[C@H]1COC (atropisomer, axis not shown) [Compound 90] | < 4.70 | D (percent of modification <10%) | D (percent of modification <10%) |  | D (percent of modification <10%) | < 6.00
C=CC(=O)N1CC[C@@H](Oc2nc(OC[C@@]34CCCN3C[C@H](F)C4)nc3c(F)c(-c4ccc(F)c5sc(N)c(C#N)c45)c(C(F)(F)F)cc23)[C@H]1COC (atropisomer, axis not shown) [Compound 95] | ≥ 6.30 | A (percent of modification ≥70%) | A (percent of modification ≥70%) | ≥ 7.00 | A (percent of modification ≥70%) | 
C=CC(=O)N1CC[C@@H](Oc2nc(OC[C@@]34CCCN3C[C@H](F)C4)nc3cc(-c4ccc(F)c5sc(N)c(C#N)c45)c(F)cc23)[C@H]1C [Compound 109] |  | B (50≤percent of modification <70%) | A (percent of modification ≥70%) | ≥ 7.00 | C (10%≤modification <50%) | 

Reference: US20250188085A1, “COMPOSITIONS AND METHODS FOR INHIBITION OF RAS” (THERAS, INC., priority 2022, published 2025)
